According to patent US12038430B2, “Methods for high-content drug screening” (The Regents of the University of California, priority 2018, dated 2024):

Test system: human wildtype CFTR
Assay: Iodide transport / YFP quenching CFTR activation assay in FRT cells on micropillar array
Assay type: cell-based
Conditions: 10 μM forskolin in alginate hydrogel, 10 min contact, FRT cells expressing human CFTR and YFP, versus neighboring area without forskolin
Method: FRT cells stably expressing human wildtype CFTR and yellow fluorescent protein YFP-H148/I152L were cultured on polyester transwell filters until they formed a tight monolayer (electrical resistance >3 kOhm·cm^2), as previously described in the art. The cell culture medium was then replaced with a viscous solution consisting of 2% methylcellulose (about 41,000 daltons, Sigma-Aldrich) in PBS. The cell layer was contacted with a 10×10 micropillar array for 10 min, and then the viscous solution was rinsed. For transport measurement, an iodide-containing solution (PBS with 120 mM chloride was replaced by iodide) was added manually on top of the cell layer. YFP fluorescence of the entire cell culture area was monitored for 5 min at 10 Hz using a 2× magnification lens (CFI Plan Apo Lambda 2X, Nikon, Melville, NY) with EMCCD camera detector (C9100, Hamamatsu). YFP fluorescence is reduced as the added extracellular iodide is transported into cell cytoplasm through activated CFTR. The time course of fluorescence for each of the 100 locations, each integrated over the 100-μm diameter circular cell area overlying the corresponding micropillar well, was determined using ImageJ. […]
CFTR function was determined from the kinetics of YFP fluorescence quenching following addition of an iodide-containing solution on the apical surface of the cell monolayer. […]

Compound: C=C[C@@]1(C)CC(=O)[C@]2(O)[C@@]3(C)[C@@H](O)CCC(C)(C)[C@@H]3[C@H](O)[C@H](OC(C)=O)[C@@]2(C)O1 [Forskolin, forskolin]
- increase of initial curve slope of YFP fluorescence quenching (CFTR activation): more than 14 fold
